The values below are quoted from earlier work in patent US10098870B2 (JENKEM TECHNOLOGY CO., LTD. (BEIJING), priority 2013, dated 2018).

The conditions of data set [1]: in words; cited from earlier work.
The conditions of data set [2]: acids, bases, physiological conditions; in words; cited from earlier work.

Regarding `CO[C@H]1C[C@@H]2CC[C@@H](C)[C@@](O)(O2)C(=O)C(=O)N2CCCC[C@H]2C(=O)O[C@H]([C@H](C)C[C@@H]2CC[C@@H](OCCO)[C@H](OC)C2)CC(=O)[C@H](C)/C=C(\C)[C@@H](O)[C@@H](OC)C(=O)[C@H](C)C[C@H](C)/C=C/C=C/C=C/1C` [Everolimus, 42-O-(2-hydroxyethyl)-rapamycin], the water-solubility entry in data set [1] was “better water-solubility than that of rapamycin”.
As for `CO[C@H]1C[C@@H]2CC[C@@H](C)[C@@](O)(O2)C(=O)C(=O)N2CCCC[C@H]2C(=O)O[C@H]([C@H](C)C[C@@H]2CC[C@@H](O)[C@H](OC)C2)CC(=O)[C@H](C)/C=C(\C)[C@@H](O)[C@@H](OC)C(=O)[C@H](C)C[C@H](C)/C=C/C=C/C=C/1C` [Rapamycin], the stability result in data set [2] is reported as “degraded even under physiological conditions”.
